Results taken from publication PMC3566764, “Thioester derivatives of the natural product psammaplin A as potent histone deacetylase inhibitors” (Beilstein Journal of Organic Chemistry, 2013).

Tests used:
[1] = Thioester hydrolysis in assay buffer, thiol detection with fluorescent coumarin probe 10; type: physicochemical; conditions: incubation with probe 10 in buffer FB-188, up to 100 minutes
Text: We therefore undertook preliminary studies to attempt to shed light on the reasons for the high potency of our thioesters in the enzymatic assays. We first envisaged that our assay buffer could potentially be responsible for thioester hydrolysis. We prepared and used synthetic probe 10 [30] (Scheme 3) in order to test this hypothesis. Coumarin-based probe 10 is known to react extremely fast with thiols through a Michael addition reaction. While the fluorescence of 10 is efficiently quenched by the intramolecular double bond, upon reaction with thiols, a highly fluorescent conjugate 11 is produced.
[formula] […] Bottom left: Fluorescence intensity at 465 nm (Y-axis, A.U.) as a function of the number of equivalents of 2-mercaptoethanol added (X-axis). Bottom right: Fluorescence intensity at 465 nm (Y-axis, A.U.) as a function of the incubation time (X-axis, minutes) of probe 10 with thioester 8.
Control experiments were performed using 2-mercaptoethanol as the thiol source. Fluorescence spectra of 10 (10^−6 M 10 in buffer FB-188 [31]) were recorded after incubation with 0, 0.2, 0.4, 0.6, 0.8, 1.0 and 1.5 equiv 2-mercaptoethanol (Scheme 3, bottom left). As expected, a linear relationship between fluorescence intensity and the concentration of thiol could be observed between 0 and 1.0 equiv, confirming the sensitivity and reliability of this system at low concentration. […]

rHDAC1 = biological target: T1, rHDAC1 (Homo sapiens, UniProt Q13547); test: rHDAC1 inhibition, coupled Boc-Lys(Ac)-AMC/trypsin fluorescence assay; type: biochemical
T1 construct: purchased BPS Bioscience (US)
T1 sequence (Q13547 whole entry): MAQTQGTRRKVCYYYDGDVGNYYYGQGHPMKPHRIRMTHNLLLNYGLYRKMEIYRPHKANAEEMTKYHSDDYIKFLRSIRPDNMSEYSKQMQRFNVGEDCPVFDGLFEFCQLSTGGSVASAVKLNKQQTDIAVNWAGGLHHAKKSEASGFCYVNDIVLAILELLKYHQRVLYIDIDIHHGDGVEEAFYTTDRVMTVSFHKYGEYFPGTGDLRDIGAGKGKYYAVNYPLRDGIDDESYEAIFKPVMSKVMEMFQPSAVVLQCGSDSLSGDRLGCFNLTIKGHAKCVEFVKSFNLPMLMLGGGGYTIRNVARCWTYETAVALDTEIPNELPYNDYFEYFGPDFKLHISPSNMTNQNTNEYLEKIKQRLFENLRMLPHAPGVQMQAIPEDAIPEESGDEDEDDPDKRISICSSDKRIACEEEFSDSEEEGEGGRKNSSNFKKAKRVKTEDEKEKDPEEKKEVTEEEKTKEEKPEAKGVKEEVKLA
Method: (§1) HDAC assays were performed as previously reported. The recombinant human histone deacetylases rHDAC1 and rHDAC6 were obtained from BPS Bioscience (US).
(§2) All reactions were performed in black half area 96-well microplates (Greiner bio-one, Germany) according to the general procedure described by Wegener et al. with some minor modifications. […] The buffer components were purchased from Merck (Germany), Roth (Germany) and Sigma-Aldrich.
(§3) The enzyme reaction was initiated by the addition of Boc-Lys(Ac)-AMC substrate. The reaction mixture was incubated at 30 °C in the dark and stopped after 60 min by the addition of a mixture of 70 µM trypsin and 200 nM SAHA. The fluorescence of AMC served as an indirect measure of HDAC enzyme activity. The kinetics of AMC release was measured on a PolarStar fluorescence plate reader (BMG) with an excitation wavelength of 340 nm and an emission wavelength of 460 nm. Complete cleavage of deacetylated Boc-Lys-AMC by trypsin was achieved after about 10–15 min. The fluorescence intensity of the plateau was averaged over at least 5 min and normalized with respect to the percentage of enzyme activity. Finally, the normalized fluorescence intensities were plotted versus the concentration of test compounds and fitted to a four-parameter logistic model to calculate the IC50 values.

[2] = test system: MCF7 (human breast carcinoma); test: Cytotoxicity against MCF7 cell line; type: cell-based; conditions: MCF7 cells
Method: (§4) Thioesters 7–9 were assayed against A549, MCF7 and WI38 cell lines, in addition to recombinant human rHDAC1 (class I) and recombinant human HDAC6 (rHDAC6, class II) as previously reported. Psammaplin A (3), prereduced psammaplin A thiol (4), and SAHA (1) were included as control compounds. IC50^6/1 is defined by the ratio IC50^HDAC6/IC50^HDAC1 and was used as an indicator of isoform selectivity in vitro.

[3] = test system: WI38 (normal human lung fibroblast); test: Cytotoxicity against WI38 cell line; type: cell-based; conditions: Homo sapiens, WI-38; WI38 cells
Method: as §4

[4] = biological target: T2, recombinant human HDAC6 (rHDAC6) (Homo sapiens, UniProt Q9UBN7); test: rHDAC6 inhibition, coupled Boc-Lys(Ac)-AMC/trypsin fluorescence assay; type: biochemical; conditions: purified recombinant human HDAC6
T2 construct: purchased BPS Bioscience (US)
T2 sequence (Q9UBN7 1-1215): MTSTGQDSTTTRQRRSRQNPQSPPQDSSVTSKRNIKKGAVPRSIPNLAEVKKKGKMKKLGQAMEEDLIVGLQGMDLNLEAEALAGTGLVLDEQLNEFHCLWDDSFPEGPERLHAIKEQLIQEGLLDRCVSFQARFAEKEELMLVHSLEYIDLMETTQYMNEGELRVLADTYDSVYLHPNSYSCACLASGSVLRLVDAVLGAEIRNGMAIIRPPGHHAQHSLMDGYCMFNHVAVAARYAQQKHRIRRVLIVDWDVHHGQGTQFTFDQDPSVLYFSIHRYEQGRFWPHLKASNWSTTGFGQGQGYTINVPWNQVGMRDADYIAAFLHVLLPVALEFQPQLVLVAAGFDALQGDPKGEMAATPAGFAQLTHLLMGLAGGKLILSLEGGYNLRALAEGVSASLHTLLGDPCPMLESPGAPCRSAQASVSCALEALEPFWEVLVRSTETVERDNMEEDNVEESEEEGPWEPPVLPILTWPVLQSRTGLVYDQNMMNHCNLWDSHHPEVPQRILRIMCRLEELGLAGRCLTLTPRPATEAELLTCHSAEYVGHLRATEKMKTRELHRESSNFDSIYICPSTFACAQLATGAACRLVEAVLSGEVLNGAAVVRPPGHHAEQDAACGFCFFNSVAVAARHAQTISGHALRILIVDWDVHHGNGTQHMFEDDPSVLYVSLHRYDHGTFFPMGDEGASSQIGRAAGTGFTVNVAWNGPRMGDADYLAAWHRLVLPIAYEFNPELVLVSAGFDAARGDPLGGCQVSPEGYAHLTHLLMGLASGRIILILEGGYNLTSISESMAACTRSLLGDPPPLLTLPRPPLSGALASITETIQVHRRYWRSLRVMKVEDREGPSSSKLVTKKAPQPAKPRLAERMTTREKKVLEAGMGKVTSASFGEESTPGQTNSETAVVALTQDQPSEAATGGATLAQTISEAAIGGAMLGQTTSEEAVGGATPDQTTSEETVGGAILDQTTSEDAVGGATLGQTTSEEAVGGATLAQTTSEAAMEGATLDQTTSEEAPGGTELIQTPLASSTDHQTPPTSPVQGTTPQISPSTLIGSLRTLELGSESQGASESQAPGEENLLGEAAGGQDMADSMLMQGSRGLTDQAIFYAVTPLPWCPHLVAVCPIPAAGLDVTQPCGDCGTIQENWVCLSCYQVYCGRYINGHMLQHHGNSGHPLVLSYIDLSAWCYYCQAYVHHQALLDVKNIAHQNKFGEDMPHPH
Method: as §1, §2, §3

[5] = test system: A549 (human lung carcinoma); test: Cytotoxicity against A549 cell line; type: cell-based; conditions: Homo sapiens; A549 cells
Method: as §4

For `COc1ccc(C/C(=N\O)C(=O)NCCSC(C)=O)cc1Br` [Compound 8, (E)-(S)-2-(3-(3-Bromo-4-methoxyphenyl)-2-(hydroxyimino)propanamido)ethyl ethanethioate], the “thiol formation (thioester hydrolysis) in assay buffer” value [1] was “no evidence of thiol formation”, the “IC50^6/1 (ratio IC50 HDAC6/IC50 HDAC1)” value (rHDAC1; isoform selectivity in vitro) was 4560 and the IC50 (rHDAC1; purified recombinant human HDAC1) was 0.005 µM. The “times less potent than the corresponding free thiol analogue against rHDAC1” value (rHDAC1; thioester vs free thiol) was 2.5 times, the IC50 [2] was 3.2 µM and the IC50 [3] was 5.2 µM. It also gave an IC50 [4] of 23 µM and an IC50 [5] of 8.3 µM.
